The text below walks through data of patent US9346817B2, “Dioxino- and oxazin-[2,3-D]pyrimidine PI3K inhibitor compounds and methods of use” (Genentech, Inc., priority 2012, dated 2016).

The nature of data set [1]: Brain protein binding in rats. The data set is classed as in vitro ADME. As to conditions: rat, read-out: Brain protein binding (mean bound %) (converted). How it is done:
Brain protein binding in rats was measured for Formula I exemplary compounds, including the following: […]

The test system of data set [2] is MDA-MB-361.1 cells (breast, PI3K mutation). Nature of the data set: In vitro cell proliferation assay (CellTiter-Glo), MDA-MB-361.1. Type of data set: cell-based. The conditions noted are these: Cell line: MDA-MB-361.1; Tissue type: breast; Mutation Status: PI3K. As for the experimental part:
(§1) The cytotoxic or cytostatic activity of Formula I exemplary compounds was measured by: establishing a proliferating mammalian tumor cell line in a cell culture medium, adding a Formula I compound, culturing the cells for a period from about 6 hours to about 5 days; and measuring cell viability (Example 902). Cell-based in vitro assays were used to measure viability, i.e. proliferation (IC50), cytotoxicity (EC50), and induction of apoptosis (caspase activation).
(§2) The in vitro potency of Formula I exemplary compounds was measured by the cell proliferation assay, CellTiter-Glo® Luminescent Cell Viability Assay, commercially available from Promega Corp., Madison, Wis. (Example 902). This homogeneous assay method is based on the recombinant expression of Coleoptera luciferase (U.S. Pat. No. 5,583,024; U.S. Pat. No. 5,674,713; U.S. Pat. No. 5,700,670) and determines the number of viable cells in culture based on quantitation of the ATP present, an indicator of metabolically active cells (Crouch et al (1993) J. Immunol. Meth. 160:81-88; U.S. Pat. No. 6,602,677). The CellTiter-Glo® Assay was conducted in 96 or 384 well format, making it amenable to automated high-throughput screening (HTS) (Cree et al (1995) AntiCancer Drugs 6:398-404). The homogeneous assay procedure involves adding the single reagent (CellTiter-Glo® Reagent) directly to cells cultured in serum-supplemented medium. Cell washing, removal of medium and multiple pipetting steps are not required. The system detects as few as 15 cells/well in a 384-well format in 10 minutes after adding reagent and mixing.
(§3) The homogeneous “add-mix-measure” format results in cell lysis and generation of a luminescent signal proportional to the amount of ATP present. The amount of ATP is directly proportional to the number of cells present in culture. The CellTiter-Glo® Assay generates a “glow-type” luminescent signal, produced by the luciferase reaction, which has a half-life generally greater than five hours, depending on cell type and medium used. Viable cells are reflected in relative luminescence units (RLU). The substrate, Beetle Luciferin, is oxidatively decarboxylated by recombinant firefly luciferase with concomitant conversion of ATP to AMP and generation of photons. The extended half-life eliminates the need to use reagent injectors and provides flexibility for continuous or batch mode processing of multiple plates. This cell proliferation assay can be used with various multiwell formats, e.g. 96 or 384 well format. Data can be recorded by luminometer or CCD camera imaging device. The luminescence output is presented as relative light units (RLU), measured over time.
(§4) The anti-proliferative effects of Formula I exemplary compounds were measured by the CellTiter-Glo® Assay (Example 902) against several tumor cell lines. Potency EC50 values were established for the tested compounds. The range of in vitro cell potency activities was about 100 nM to about 10 μM.
(§5) Efficacy of Formula I compounds was measured by a cell proliferation assay employing the following protocol (Promega Corp. Technical Bulletin TB288; Mendoza et al (2002) Cancer Res. 62:5485-5488):
(§6) 1. An aliquot of 100 μl of cell culture containing about 10^4 cells (PC3 (prostate cancer), Detroit562 (pharynx carcinoma), or MDAMB361.1 (breast cancer) in medium was deposited in each well of a 384-well, opaque-walled plate.
(§7) 2. Control wells were prepared containing medium and without cells.
(§8) 3. The compound was added to the experimental wells and incubated for 3-5 days.
(§9) 4. The plates were equilibrated to room temperature for approximately 30 minutes.
(§10) 5. A volume of CellTiter-Glo® Reagent equal to the volume of cell culture medium present in each well was added.
(§11) 6. The contents were mixed for 2 minutes on an orbital shaker to induce cell lysis.
(§12) 7. The plate was incubated at room temperature for 10 minutes to stabilize the luminescence signal.
(§13) 8. Luminescence was recorded and reported in graphs as RLU=relative luminescence units. […]

Data set [3] concerns PC3 cells (prostate, PTEN mutation). The experiment in a line: In vitro cell proliferation assay (CellTiter-Glo), PC3. The data set is classed as cell-based. The conditions noted are these: Homo sapiens, PC-3; Cell line: PC3; Tissue type: prostate; Mutation Status: PTEN. As for the experimental part:
as §1, §2, §3, §4, §5, §6, §7, §8, §9, §10, §11, §12, §13
For orientation: In ATP-based viability assays light output follows the ATP content of the culture.

SMILES strings stand for the structures.

Consider `Nc1ncc(-c2nc3c(c(N4CCOCC4)n2)OCCO3)cn1` [Compound 101, 5-(4-morpholino-6,7-dihydro-[1,4]dioxino[2,3-d]pyrimidin-2-yl)pyrimidin-2-amine], for which the fraction unbound in data set [1] is 0.285. For the same compound, the figures for the EC50 in data set [2] and in data set [3] were 1.1 µM and 1 µM, respectively.
Taken in the same sequence, the figures for `C[C@@H]1COc2nc(-c3cnc(N)nc3)nc(N3CCOCC3)c2O1` [Compound 102, 5-[(6R)-6-methyl-4-morpholino-6,7-dihydro-[1,4]dioxino[2,3-d]pyrimidin-2-yl]pyrimidin-2-amine] were 0.2, 0.37 µM and 0.557 µM.
As for `CC1COc2c(nc(-c3cnc(N)nc3)nc2N2CCOCC2)O1` (centres unmarked) [Compound 103, 5-(7-methyl-4-morpholino-6,7-dihydro-[1,4]dioxino[2,3-d]pyrimidin-2-yl)pyrimidin-2-amine], the EC50 in data set [2] was 0.63 µM; in data set [3], 0.606 µM.
Consider `CC1(C)COc2c(nc(-c3cnc(N)nc3)nc2N2CCOCC2)O1` [Compound 104, 5-(7,7-dimethyl-4-morpholino-6H-[1,4]dioxino[2,3-d]pyrimidin-2-yl)pyrimidin-2-amine], for which the EC50 was determined as 0.577 µM in data set [2] and 0.406 µM in data set [3].
Regarding `Nc1ncc(-c2nc3c(c(N4CCOCC4)n2)OCC(C(F)(F)F)O3)cn1` (centres unmarked) [Compound 105, 5-[4-morpholino-7-(trifluoromethyl)-6,7-dihydro-[1,4]dioxino[2,3-d]pyrimidin-2-yl]pyrimidin-2-amine], the fraction unbound in data set [1] is 0.183. The EC50 in data set [2] came out at 0.275 µM; in data set [3], 0.5 µM.
With `Nc1ncc(-c2nc3c(c(N4CCOCC4)n2)OCC2(CC2)O3)cn1` [Compound 106, 5-(4-morpholinospiro[6H-[1,4]dioxino[2,3-d]pyrimidine-7,1′-cyclopropane]-2-yl)pyrimidin-2-amine], the fraction unbound in data set [1] was 0.134. Besides, the values for the EC50 in data set [2] and in data set [3] were 0.544 µM and 0.489 µM, respectively.
In the case of `Nc1ncc(-c2nc3c(c(N4CCOCC4)n2)OC(C2CC2)CO3)cn1` (centres unmarked) [Compound 107, 5-(6-cyclopropyl-4-morpholino-6,7-dihydro-[1,4]dioxino[2,3-d]pyrimidin-2-yl)pyrimidin-2-amine], the EC50 in data set [2] is 0.961 µM; in data set [3] it was 1.2 µM.
For `CC(C)(C)C1COc2c(nc(-c3cnc(N)nc3)nc2N2CCOCC2)O1` (centres unmarked) [Compound 108, 5-(7-tert-butyl-4-morpholino-6,7-dihydro-[1,4]dioxino[2,3-d]pyrimidin-2-yl)pyrimidin-2-amine], the EC50 in data set [2] is 0.213 µM; in data set [3], 0.338 µM.
On the same counts, the results for `CC1(C)COc2c(nc(-c3cccc(O)c3)nc2N2CCOCC2)O1` [Compound 109, 3-(7,7-dimethyl-4-morpholino-6H-[1,4]dioxino[2,3-d]pyrimidin-2-yl)phenol] are 0.445 µM and 0.182 µM.
On the same counts, the results for `COc1ncc(-c2nc3c(c(N4CCOCC4)n2)OCC(C)(C)O3)cn1` [Compound 110, 2-(2-methoxypyrimidin-5-yl)-7,7-dimethyl-4-morpholino-6H-[1,4]dioxino[2,3-d]pyrimidine] are 4.1 µM and 4.8 µM.
For `CC1(C)COc2c(nc(-c3ccc(N)nc3)nc2N2CCOCC2)O1` [Compound 111, 5-(7,7-dimethyl-4-morpholino-6H-[1,4]dioxino[2,3-d]pyrimidin-2-yl)pyridin-2-amine], the EC50 is 0.545 µM in data set [2] and 0.48 µM in data set [3].
Turning to `CC(=O)Nc1ccc(-c2nc3c(c(N4CCOCC4)n2)OCC(C)(C)O3)cc1` [Compound 112, N-[4-(7,7-dimethyl-4-morpholino-6H-[1,4]dioxino[2,3-d]pyrimidin-2-yl)phenyl]acetamide], the EC50 in data set [2] was 1.8 µM; in data set [3], 2.1 µM.
Consider `CNc1ccc(-c2nc3c(c(N4CCOCC4)n2)OCC(C)(C)O3)cn1` [Compound 113, 5-(7,7-dimethyl-4-morpholino-6H-[1,4]dioxino[2,3-d]pyrimidin-2-yl)-N-methyl-pyridin-2-amine], for which the EC50 in data set [2] came to 2 µM; in data set [3] it was 2.1 µM.
With `CC1(C)COc2c(nc(-c3cccc(NS(C)(=O)=O)c3)nc2N2CCOCC2)O1` [Compound 114, N-[3-(7,7-dimethyl-4-morpholino-6H-[1,4]dioxino[2,3-d]pyrimidin-2-yl)phenyl]methanesulfonamide], the values for the concentration for a half-maximal effect (EC50) in data set [2] and in data set [3] were > 7.5 µM and > 10 µM, respectively.
On to `CC1(C)COc2c(nc(-c3ccc4[nH]ccc4c3)nc2N2CCOCC2)O1` [Compound 115, 2-(1H-indol-5-yl)-7,7-dimethyl-4-morpholino-6H-[1,4]dioxino[2,3-d]pyrimidine], for which the EC50 was 1.8 µM in data set [2] and 2.3 µM in data set [3].
For the compound `Nc1ncc(-c2nc3c(c(N4CCOCC4)n2)OCC(CF)O3)cn1` (centres unmarked) [Compound 116, 5-[7-(fluoromethyl)-4-morpholino-6,7-dihydro-[1,4]dioxino[2,3-d]pyrimidin-2-yl]pyrimidin-2-amine], the fraction unbound in data set [1] was 0.17. Also, the results for the EC50 in data set [2] and in data set [3] were 0.73 µM and 0.76 µM, respectively.
In the case of `Nc1ncc(-c2nc3c(c(N4CCOCC4)n2)OCC(CO)O3)cn1` (centres unmarked) [Compound 117, [2-(2-aminopyrimidin-5-yl)-4-morpholino-6,7-dihydro-[1,4]dioxino[2,3-d]pyrimidin-7-yl]methanol], the EC50 in data set [2] was 0.669 µM; in data set [3], 0.759 µM.
Take `CN1CCOc2c1nc(-c1cnc(N)nc1)nc2N1CCOCC1` [Compound 119, 5-(8-methyl-4-morpholino-7,8-dihydro-6H-pyrimido[5,4-b][1,4]oxazin-2-yl)pyrimidin-2-amine]: the EC50 in data set [2] is 2.6 µM; in data set [3], 3.1 µM.
In the case of `CN1C(=O)COc2c(N3CCOCC3)nc(-c3cnc(N)nc3)nc21` [Compound 120, 2-(2-aminopyrimidin-5-yl)-8-methyl-4-morpholino-6H-pyrimido[5,4-b][1,4]oxazin-7(8H)-one], in data set [1], the fraction unbound is 0.16. The EC50 in data set [2] is 0.57 µM; in data set [3], 0.589 µM.

What is called EC50 is the concentration that produces a half-maximal response. Lower therefore signals a more potent agent.
